{"source": "patent US11071768B2", "about": "“Caspofungin compositions for inhalation” (TRILOGY THERAPEUTICS, INC., priority 2018, dated 2021)", "key": {"[1]": {"details": "rat; cited from earlier work"}, "[2]": {"test_system": "Candida albicans Azole-R (20186.025)", "assay": "In vitro broth microdilution assay (CLSI)", "type": "cell-based", "procedure": "(§1) The antifungal potency of the test article(s) was measured using the in vitro broth microdilution assay under assay conditions described by the Clinical and Laboratory Standards Institute. In this assay, the Minimum Inhibitory Concentration (MIC) is defined as the lowest concentration of an agent that causes a specified reduction in visible growth of the microorganism. The Minimal Effective Concentration (MEC) is defined as the lowest concentration of an agent that leads to the growth of small, rounded, compact hyphal forms as compared to the hyphal growth seen in the growth control well. In this study, MIC values are determined for the 9 Candida species and Cryptococcus neoformans. MEC values are determined for 3 filamentous fungi (2 Aspergillus fumigatus and Trichophyton rubrum). Test articles were prepared as the following:\n(§2) The 3.2 mg/mL working stock solution was 2-fold diluted serially in 0.9% NaCl to prepare a total of eleven 50-fold stock solutions, concentrations ranging from 3.2 to 0.003 mg/mL. A 4 μL aliquot of each dilution was added to 196 μL of broth medium seeded with the organism suspension in wells of a 96 well plate (fungal cell count: 1×10^3 to 1×10^4 colony forming units per mL). The final volume was 200 μL in each well. Following incubation, the test plates were visually examined and wells were scored for growth or complete growth inhibition to define the MIC values. Microscopy examination was used to determine the MEC values. Each test substance was evaluated in duplicate and the results below are the duplicate test values. Vehicle-control and an active reference agent were used as blank and positive controls, respectively."}, "[3]": {"test_system": "Candida glabrata ATCC 36583", "assay": "In vitro broth microdilution assay (CLSI)", "type": "cell-based", "procedure": "as §1, §2"}, "[4]": {"test_system": "Candida parapsilosis ATCC 22019", "assay": "In vitro broth microdilution assay (CLSI)", "type": "cell-based", "procedure": "as §1, §2"}, "Candida krusei ATCC 6258": {"test_system": "Candida krusei ATCC 6258", "assay": "In vitro broth microdilution assay (CLSI)", "type": "cell-based", "procedure": "as §1, §2"}, "[5]": {"test_system": "Candida albicans Azole-R (20183.073)", "assay": "In vitro broth microdilution assay (CLSI)", "type": "cell-based", "procedure": "as §1, §2"}, "[6]": {"test_system": "Candida albicans ATCC44858", "assay": "In vitro broth microdilution assay (CLSI)", "type": "cell-based", "procedure": "as §1, §2"}, "[7]": {"test_system": "Candida albicans ATCC90028", "assay": "In vitro broth microdilution assay (CLSI)", "type": "cell-based", "procedure": "as §1, §2"}, "[8]": {"test_system": "Trichophyton rubrum ATCC 10218", "assay": "In vitro broth microdilution assay (CLSI)", "type": "cell-based", "procedure": "as §1, §2"}, "[9]": {"test_system": "Candida tropicalis ATCC 200956", "assay": "In vitro broth microdilution assay (CLSI)", "type": "cell-based", "procedure": "as §1, §2"}, "[10]": {"test_system": "Aspergillus fumigatus ATCC204305", "assay": "In vitro broth microdilution assay (CLSI)", "type": "cell-based", "procedure": "as §1, §2"}, "[11]": {"test_system": "Cryptococcus neoformans ATCC 24067", "assay": "In vitro broth microdilution assay (CLSI)", "type": "cell-based", "procedure": "as §1, §2"}, "[12]": {"test_system": "Aspergillus fumigatus ATCC 13073", "assay": "In vitro broth microdilution assay (CLSI)", "type": "cell-based", "procedure": "as §1, §2"}, "[13]": {"assay": "Storage stability of lyophilized formulations by HPLC", "type": "physicochemical", "details": "for RT 26.1 (hydrolysis degradation product) / RT 37.3 (dimerization degradation product) / HPLC purity % (total caspofungin): lyophilized", "procedure": "General: HPLC analysis was carried out on a Waters 2695 separations module equipped with an autosampler and a Waters 996 photodiode array detector. The HPLC method is described below:\nAliquots of 0.5 mL of each formulation listed in Table 3 were frozen on dry ice for 30 min and lyophilized for 40 h to obtain white cakes. A portion of each cake was reconstituted in 1 mL of deionized water and analyzed by HPLC. The vials were stoppered, crimp sealed and placed on stability at 5° C. and 40° C.\nEach liquid formulation in Table 5 was equally split into two vials, frozen on dry ice for 1 h and lyophilized for 90 h to obtain white cakes. The vials were stoppered, crimp sealed and placed on stability at 5° C. and 40° C.\nThe liquid formulations to be lyophilized were prepared according to Table 6. Aliquots of 0.5 mL of each liquid formulation were placed in 3 mL glass vials, frozen on dry ice for 40 min. The vials were partially stoppered with lyo septa and lyophilized for 5 days. The vials were placed on stability at 5° C., ambient (dark) and −20° C.\nFourteen 0.5 mL aliquots of each liquid formulation prepared in part C were placed in 14 3-mL glass vials. The vials were frozen on dry ice for about 1 h and lyophilized for 5 days to obtain white cake. The vials were stoppered, crimp sealed and placed on stability at −20° C., 5° C., and ambient (dark) conditions.\nOne vial of the lyophilized cake was reconstituted in 1 mL of deionized water to obtain a 10 mg/mL caspofungin diacetate solution. An aliquot (55 μL) was removed and diluted with 1 mL of deionized water for HPLC analysis.\nTables 11, 12, 13, and 14 summarize the total caspofungin (%) as determined by HPLC present for each formulation prepared prior to storage and after several storage conditions. RT as below refers to HPLC retention time. The product with a retention time of 26.1 minutes is a hydrolysis degradation product while the product with a retention time of 37.3 minutes is a dimerization degradation product that is obtained from the dimerization of the hydrolysis products."}, "[14]": {"assay": "KF water content of lyophilized formulations", "type": "physicochemical", "details": "lyo cake, T0; listed as API (lyo process)", "text": "Tables 17 and 18 summarize the % water content measured of the prepared formulations."}, "[15]": {"details": "cited from earlier work"}, "[16]": {"details": "Candida albicans ATCC90028 + 50% human serum"}}, "note": "Where “and” joins values, the source holds several entries; their conditions need not be identical. Identical values can stand only once. Starred links: 1 amine or outer side, 2 acyl side, 3 side chain; linkers in the order of their positions; H or OH if unused. Positions of bridges follow the written chain, without caps; N, C: chain ends. Non-standard residues stand in square brackets, D forms with d. Residues, ends and D or L forms follow the SMILES beside them. *: point of attachment. hTyr(3S-OH,4S-OH,3'-OSO3H) = N[C@H](C(=O)O)[C@H](O)[C@@H](O)c1ccc(O)c(OS(=O)(=O)O)c1; pTerphenylCO(4''-OnC5H11) = CCCCCOc1ccc(-c2ccc(-c3ccc(C(=O)*)cc3)cc2)cc1; Orn(4R-OH,5R-OH) = O=C([C@H](C[C@@H](O)[C@@H](O)N[*:3])N[*:1])[*:2]; hTyr(3S-OH,4S-OH) = N[C@H](C(=O)O)[C@H](O)[C@@H](O)c1ccc(O)cc1; Pro(3S-OH,4S-Me) = C[C@H]1CN[C@H](C(=O)O)[C@H]1O; X1 = CCCCCOc1ccc(-c2cc(-c3ccc(C(=O)*)cc3)no2)cc1; Gln(3R-OH) = NC(=O)C[C@@H](O)[C@H](N)C(=O)O; Hyp = O=C(O)[C@@H]1C[C@@H](O)CN1", "data": [{"molecule": "CCCCCOc1ccc(-c2cc(-c3ccc(C(=O)N[C@H]4C[C@@H](O)[C@@H](O)NC(=O)[C@@H]5[C@@H](O)[C@@H](C)CN5C(=O)[C@H]([C@H](O)CC(N)=O)NC(=O)[C@H]([C@H](O)[C@@H](O)c5ccc(O)c(OS(=O)(=O)O)c5)NC(=O)[C@@H]5C[C@@H](O)CN5C(=O)[C@H]([C@@H](C)O)NC4=O)cc3)no2)cc1", "note": "[Micafungin, micafungin] (X1-[Orn(4R-OH,5R-OH)]T[Hyp][hTyr(3S-OH,4S-OH,3'-OSO3H)][Gln(3R-OH)][Pro(3S-OH,4S-Me)]; lactam 1-C)", "values": [{"measurement": "Exposure in the kidney relative to plasma", "setting": "[1]", "result": 3.4, "unit": "fold"}, {"measurement": "Exposure in the liver relative to plasma", "setting": "[1]", "result": 1.6, "unit": "fold"}, {"measurement": "Exposure in the lung relative to plasma", "setting": "[1]", "result": 2.9, "unit": "fold"}]}, {"molecule": "C[C@@H]1[C@H](O)[C@@H](C)/C=C/C=C/C=C/C=C/C=C/C=C/C=C/[C@H](O[C@@H]2O[C@H](C)[C@@H](O)[C@H](N)[C@@H]2O)C[C@@H]2O[C@](O)(C[C@@H](O)C[C@@H](O)[C@H](O)CC[C@@H](O)C[C@@H](O)CC(=O)O[C@H]1C)C[C@H](O)[C@H]2C(=O)O", "note": "[amphotericin B]", "values": [{"measurement": "MIC", "setting": "[2]", "result": 0.25, "unit": "µg/mL"}, {"measurement": "MIC", "setting": "[3]", "result": 0.125, "unit": "µg/mL"}, {"measurement": "MIC", "setting": "[4]", "result": 0.25, "unit": "µg/mL"}, {"measurement": "MIC", "setting": "Candida krusei ATCC 6258", "result": 0.25, "unit": "µg/mL"}, {"measurement": "MIC", "setting": "[5]", "result": 0.125, "unit": "µg/mL"}, {"measurement": "MIC", "setting": "[6]", "result": 0.125, "unit": "µg/mL"}, {"measurement": "MIC", "setting": "[7]; Candida albicans ATCC90028", "result": 0.125, "unit": "µg/mL"}, {"measurement": "MIC", "setting": "[7]; [16]", "result": 0.25, "unit": "µg/mL"}, {"measurement": "MIC", "setting": "[8]", "result": 0.125, "unit": "µg/mL"}, {"measurement": "MIC", "setting": "[9]", "result": 1, "unit": "µg/mL"}]}, {"molecule": "caspofungin diacetate", "values": [{"measurement": "MIC", "setting": "[2]", "result": 0.25, "unit": "µg/mL"}, {"measurement": "MIC", "setting": "[3]", "result": 0.25, "unit": "µg/mL"}, {"measurement": "MEC", "setting": "[10]", "result": 0.125, "unit": "µg/mL"}, {"measurement": "MIC", "setting": "[11]", "result": 16, "unit": "µg/mL"}, {"measurement": "MIC", "setting": "[4]", "result": 1, "unit": "µg/mL"}, {"measurement": "MIC", "setting": "Candida krusei ATCC 6258", "result": 1, "unit": "µg/mL"}, {"measurement": "MIC", "setting": "[5]", "result": 0.25, "unit": "µg/mL"}, {"measurement": "MIC", "setting": "[6]", "result": 0.25, "unit": "µg/mL"}, {"measurement": "MEC", "setting": "[12]", "result": 0.0625, "unit": "µg/mL"}, {"measurement": "MIC", "setting": "[7]; Candida albicans ATCC90028", "result": 0.25, "unit": "µg/mL"}, {"measurement": "MIC", "setting": "[7]; [16]", "result": 0.125, "unit": "µg/mL"}, {"measurement": "MEC", "setting": "[8]", "result": 0.125, "unit": "µg/mL"}, {"measurement": "MIC", "setting": "[9]", "result": 0.25, "unit": "µg/mL"}, {"measurement": "HPLC purity of control", "setting": "[13]; Pure API control, as printed in the head", "result": 99.72, "unit": "%)"}, {"measurement": "RT 26.1 (hydrolysis degradation product)", "setting": "[13]; 40° C. 1 week", "result": 2.88, "unit": "%"}, {"measurement": "RT 37.3 (dimerization degradation product)", "setting": "[13]; 40° C. 1 week", "result": 9.26, "unit": "%"}, {"measurement": "HPLC purity % (total caspofungin)", "setting": "[13]; 40° C. 1 week, listed as API (lyo process)", "result": 82.32, "unit": "%"}, {"measurement": "HPLC purity % (total caspofungin)", "setting": "[13]; 40° C. 1 week, listed as Pure API", "result": 88.48, "unit": "%"}, {"measurement": "HPLC purity % (total caspofungin)", "setting": "[13]; 40° C. 3 week", "result": 75.71, "unit": "%"}, {"measurement": "RT 26.1 (hydrolysis degradation product)", "setting": "[13]; 40° C. 3 week", "result": 6.09, "unit": "%"}, {"measurement": "RT 37.3 (dimerization degradation product)", "setting": "[13]; 40° C. 3 week", "result": 4.38, "unit": "%"}, {"measurement": "RT 26.1 (hydrolysis degradation product)", "setting": "[13]; T0", "result": 2.17, "unit": "%"}, {"measurement": "RT 37.3 (dimerization degradation product)", "setting": "[13]; T0", "result": 1.57, "unit": "%"}, {"measurement": "HPLC purity % (total caspofungin)", "setting": "[13]; T0, listed as API (lyo process)", "result": "95.82% and 95.42%"}, {"measurement": "KF water content %", "setting": "[14]", "result": "6.16% and 3.94%"}]}, {"molecule": "CCCCCOc1ccc(-c2ccc(-c3ccc(C(=O)N[C@H]4C[C@@H](O)[C@@H](O)NC(=O)[C@@H]5[C@@H](O)[C@@H](C)CN5C(=O)[C@H]([C@@H](C)O)NC(=O)[C@H]([C@H](O)[C@@H](O)c5ccc(O)cc5)NC(=O)[C@@H]5C[C@@H](O)CN5C(=O)[C@H]([C@@H](C)O)NC4=O)cc3)cc2)cc1", "note": "[anidulafungin] ({pTerphenylCO(4''-OnC5H11)}-[Orn(4R-OH,5R-OH)]T[Hyp][hTyr(3S-OH,4S-OH)]T[Pro(3S-OH,4S-Me)]; lactam 1-C)", "values": [{"measurement": "Time that levels stay above MICs for common pathogens", "setting": "[15]; rat tissues", "result": 72, "unit": "h"}, {"measurement": "Exposure in tissues (liver, lung, spleen, kidney) relative to plasma", "setting": "[15]; rat", "result": "9-12 fold"}, {"measurement": "Time to peak concentrations in tissues", "setting": "[15]; rat", "result": "≤ 30", "unit": "min"}]}]}
